What was measured:
human GLP-1R [1] = molecular target: human GLP-1R (Homo sapiens, UniProt P43220, L260F); assay: CHO GLP-1R Clone C6 cAMP HTRF agonist assay (Assay 2, low receptor density); type: cell-based; conditions: for EC50: geometric mean
Excerpt: In Table 5 and Table 6, assay data are presented to two (2) significant figures as the geometric mean (EC50s) and arithmetic mean (Emax) based on the number of replicates listed (Number). A blank cell means there was no data for that Example or the Emax was not calculated.

human GLP-1R [2] = molecular target: human GLP-1R (Homo sapiens, UniProt P43220, G168S); assay: CHO GLP-1R Clone H6 cAMP HTRF agonist assay (Assay 1, high receptor density); type: cell-based; conditions: for EC50: CHO GLP-1R clone H6, cAMP HTRF, geometric mean; for Emax: read-out: Assay 1 Emax (%)
human GLP-1R (Homo sapiens, UniProt P43220, G168S), sequence (P43220 24-463 G168S): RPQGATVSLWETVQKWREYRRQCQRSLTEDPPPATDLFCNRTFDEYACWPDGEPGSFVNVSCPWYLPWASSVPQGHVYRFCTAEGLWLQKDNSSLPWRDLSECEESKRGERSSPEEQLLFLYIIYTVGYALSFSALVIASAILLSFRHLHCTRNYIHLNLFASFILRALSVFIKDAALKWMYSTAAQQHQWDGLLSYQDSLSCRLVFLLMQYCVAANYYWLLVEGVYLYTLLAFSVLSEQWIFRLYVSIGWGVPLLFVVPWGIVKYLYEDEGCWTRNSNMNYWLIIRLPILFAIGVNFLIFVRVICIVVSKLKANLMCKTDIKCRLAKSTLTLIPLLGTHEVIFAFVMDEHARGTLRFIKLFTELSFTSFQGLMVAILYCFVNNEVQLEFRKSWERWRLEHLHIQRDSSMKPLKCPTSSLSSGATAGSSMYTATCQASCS
In short: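 From replicate determinations, mean EC50 (geometric) and mean Emax (arithmetic) were derived and expressed to two significant figures.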

[3] = CHO GLP-1R clone C6, arithmetic mean, relative to saturating GLP-1 (1 μM)
[4] = CHO GLP-1R clone H6, arithmetic mean, relative to saturating GLP-1 (1 μM)

human GLP-1R (Homo sapiens, UniProt P43220, L260F), sequence (P43220 24-463 L260F): as the sequence (P43220 24-463 G168S) above, with S145G, L237F counted along it

SMILES | EC50 (human GLP-1R [1]; CHO GLP-1R clone C6, cAMP HTRF) [nM] | Emax (human GLP-1R [1]; [3]) [%] | EC50 (human GLP-1R [2]) [nM] | Emax (human GLP-1R [2]; [4]) [%] | Assay 2 Emax (%) (human GLP-1R [1]; [3]) | Assay 1 Emax (%) (human GLP-1R [2]; [4]) | EC50 (human GLP-1R [1]; CHO GLP-1R clone, low receptor density, cAMP HTRF) [nM]
COCCn1c(CN2CCC(c3cccc(OCc4ccc(C#N)c(C)c4)n3)CC2)nc2ccc(C(=O)O)cc21 [Compound 218B, 2-((4-(6-((4-cyano-3-methylbenzyl)oxy)pyridin-2-yl)piperidin-1-yl)methyl)-1-(2-methoxyethyl)-1H-benzo[d]imidazole-6-carboxylic acid] | 29 | 95 | 1.5 | – | – | – | –
CN(C)CCn1c(CN2CCC(c3cccc(OCc4ccc(Cl)cc4F)n3)CC2)nc2ccc(C(=O)O)cc21 [Compound 238B, 2-[(4-{6-[(4-chloro-2-fluorobenzyl)oxy]pyridin-2-yl}piperidin-1-yl)methyl]-1-[2-(dimethylamino)ethyl]-1H-benzimidazole-6-carboxylic acid] | 11 | 100 | 0.71 | 81 | – | – | –
C[C@H]1CN(c2cccc(OCc3ccc(C#N)cc3)n2)CCN1Cc1nc2ccc(C(=O)O)cc2n1C[C@@H]1CCO1 [Compound 138B, 2-{[(2S)-4-{6-[(4-cyanobenzyl)oxy]pyridin-2-yl}-2-methylpiperazin-1-yl]methyl}-1-[(2S)-oxetan-2-ylmethyl]-1H-benzimidazole-6-carboxylic acid] | – | – | – | – | 89 | 95 | –
CO[C@@H]1CCC[C@@H]1Cn1c(CN2CCC(c3cccc(OCc4ccc(Cl)cc4F)n3)CC2)nc2ccc(C(=O)O)cc21 (racemic) [Compound 196B, rac-2-[(4-{6-[(4-chloro-2-fluorobenzyl)oxy]pyridin-2-yl}piperidin-1-yl)methyl]-1-{[(1S,2S)-2-methoxycyclopentyl]methyl}-1H-benzimidazole-6-carboxylic acid] | 170 | 75 | 4.1 | 67 | – | – | –
N#Cc1ccc(COc2cccc(C3CCN(Cc4nc5ccc(C(=O)O)cc5n4C[C@H]4CCO4)CC3)n2)c(F)c1 [Compound 111B, 2-[(4-{6-[(4-cyano-2-fluorobenzyl)oxy]pyridin-2-yl}piperidin-1-yl)methyl]-1-[(2R)-oxetan-2-ylmethyl]-1H-benzimidazole-6-carboxylic acid] | – | 67 | – | 75 | – | – | –
Cn1c(CN2CCC(c3cccc(OCc4ccc(C(F)(F)F)cc4)n3)CC2)nc2ccc(C(=O)O)cc21 [Compound 232B, 1-methyl-2-{[4-(6-{[4-(trifluoromethyl)benzyl]oxy}pyridin-2-yl)piperidin-1-yl]methyl}-1H-benzimidazole-6-carboxylic acid] | 140 | 76 | 8.6 | 64 | – | – | –
C[C@H]1CN(c2cccc(OCc3ccc(Cl)cc3F)n2)CCN1Cc1nc2ccc(C(=O)O)nc2n1C[C@@H]1CCO1 [Compound 136B, 2-{[(2S)-4-{6-[(4-chloro-2-fluorobenzyl)oxy]pyridin-2-yl}-2-methylpiperazin-1-yl]methyl}-3-[(2S)-oxetan-2-ylmethyl]-3H-imidazo[4,5-b]pyridine-5-carboxylic acid] | 4100 | 110 | 150 | 86 | – | – | –
CCn1cnnc1Cn1c(CN2CCN(c3cccc(OCc4ccc(Cl)cc4F)n3)C[C@@H]2C)nc2ccc(C(=O)O)cc21 [Compound 245B, 2-{[(2S)-4-{6-[(4-chloro-2-fluorobenzyl)oxy]pyridin-2-yl}-2-methylpiperazin-1-yl]methyl}-1-[(4-ethyl-4H-1,2,4-triazol-3-yl)methyl]-1H-benzimidazole-6-carboxylic acid] | 35 | 89 | 1.5 | 74 | – | – | –
N#Cc1ccc(COc2cccc(C3CCN(Cc4nc5ccc(C(=O)O)cc5n4C[C@@H]4CCO4)CC3)n2)c(F)c1 [Compound 110B, 2-[(4-{6-[(4-cyano-2-fluorobenzyl)oxy]pyridin-2-yl}piperidin-1-yl)methyl]-1-[(2S)-oxetan-2-ylmethyl]-1H-benzimidazole-6-carboxylic acid] | – | 82 | – | – | – | – | –
O=C(O)c1ccc2nc(CN3CCC(c4cccc5c4O[C@H](c4ccc(Cl)cc4F)O5)CC3)n(C[C@@H]3CCO3)c2c1 [Compound 4B, Ammonium 2-({4-[(2R)-2-(4-chloro-2-fluorophenyl)-1,3-benzodioxol-4-yl]piperidin-1-yl}methyl)-1-[(2S)-oxetan-2-ylmethyl]-1H-benzimidazole-6-carboxylate] | – | – | – | – | – | – | > 20000
N#Cc1ccc(COc2cccc(C3CCN(Cc4nc5ccc(C(=O)O)cc5n4C[C@@H]4CCOC4)CC3)n2)c(F)c1 [Compound 126B, 2-[(4-{6-[(4-cyano-2-fluorobenzyl)oxy]pyridin-2-yl}piperidin-1-yl)methyl]-1-[(3S)-tetrahydrofuran-3-ylmethyl]-1H-benzimidazole-6-carboxylic acid] | – | 90 | – | – | – | – | –
N#Cc1ccc(COc2nc(C3CCN(Cc4nc5ccc(C(=O)O)cc5n4C[C@H]4CCCO4)CC3)ccc2F)cc1 [Compound 129B, 2-[(4-{6-[(4-cyanobenzyl)oxy]-5-fluoropyridin-2-yl}piperidin-1-yl)methyl]-1-[(2R)-tetrahydrofuran-2-ylmethyl]-1H-benzimidazole-6-carboxylic acid] | – | 98 | – | – | – | – | –
N#Cc1ccc(COc2nc(C3CCN(Cc4nc5ccc(C(=O)O)cc5n4C[C@@H]4CCCO4)CC3)ccc2F)cc1 [Compound 128B, 2-[(4-{6-[(4-cyanobenzyl)oxy]-5-fluoropyridin-2-yl}piperidin-1-yl)methyl]-1-[(2S)-tetrahydrofuran-2-ylmethyl]-1H-benzimidazole-6-carboxylic acid] | – | 86 | – | – | – | – | –
O=C(O)c1ccc2nc(CN3CCN(c4cccc(OCc5ccc(Cl)cc5F)n4)CC3)n(C[C@@H]3CCO3)c2c1 [Compound 119B, 2-[(4-{6-[(4-chloro-2-fluorobenzyl)oxy]pyridin-2-yl}piperazin-1-yl)methyl]-1-[(2S)-oxetan-2-ylmethyl]-1H-benzimidazole-6-carboxylic acid] | – | – | 210 | 66 | – | – | –
C[C@H]1CN(c2cccc(OCc3ccc(Cl)cc3F)n2)CCN1Cc1nc2ccc(C(=O)O)cc2n1Cc1cnco1 [Compound 147B, 2-{[(2S)-4-{6-[(4-chloro-2-fluorobenzyl)oxy]pyridin-2-yl}-2-methylpiperazin-1-yl]methyl}-1-(1,3-oxazol-5-ylmethyl)-1H-benzimidazole-6-carboxylic acid] | – | – | 210 | 79 | – | – | –
Cn1c(CN2CCC(c3cccc(OCc4ccc(C#N)cc4)n3)CC2)nc2ccc(C(=O)O)cc21 [Compound 234B, 2-[(4-{6-[(4-cyanobenzyl)oxy]pyridin-2-yl}piperidin-1-yl)methyl]-1-methyl-1H-benzimidazole-6-carboxylic acid] | – | – | 290 | 64 | – | – | –

The next lines start with the values.

EC50 (human GLP-1R [1]; CHO GLP-1R clone C6, cAMP HTRF) [nM] | Emax (human GLP-1R [1]; [3]) [%] | EC50 (human GLP-1R [2]) [nM] | Emax (human GLP-1R [2]; [4]) [%] | Assay 2 Emax (%) (human GLP-1R [1]; [3]) | Assay 1 Emax (%) (human GLP-1R [2]; [4]) | EC50 (human GLP-1R [1]; CHO GLP-1R clone, low receptor density, cAMP HTRF) [nM] | SMILES
2100 | 100 | 54 | 81 | – | – | – | COCCn1c(CN2CCN(c3cccc(OCc4ccc(Cl)cc4F)n3)CC2C(F)(F)F)nc2ccc(C(=O)O)cc21 (centres unmarked) [Compound 348B, 2-((4-(6-((4-Chloro-2-fluorobenzyl)oxy)pyridin-2-yl)-2-(trifluoromethyl)piperazin-1-yl)methyl)-1-(2-methoxyethyl)-1H-benzo[d]imidazole-6-carboxylic acid]
1100 | 79 | 36 | 73 | – | – | – | CC1(Cn2c(CN3CCC(c4cccc(OCc5ccc(Cl)cc5F)n4)CC3)nc3ccc(C(=O)O)cc32)CCOC1 (centres unmarked) [Compound 289B, 2-[(4-{6-[(4-chloro-2-fluorobenzyl)oxy]pyridin-2-yl}piperidin-1-yl)methyl]-1-[(3-methyltetrahydrofuran-3-yl)methyl]-1H-benzimidazole-6-carboxylic acid]
1600 | 82 | 36 | 71 | – | – | – | O=C(O)c1ccc2nc(CN3CCC(c4cccc(OCc5ccc(Cl)cc5F)n4)CC3)n(Cc3n[nH]c(C4CC4)n3)c2c1 [Compound 339B, 2-[(4-{6-[(4-chloro-2-fluorobenzyl)oxy]pyridin-2-yl}piperidin-1-yl)methyl]-1-[(5-cyclopropyl-1H-1,2,4-triazol-3-yl)methyl]-1H-benzimidazole-6-carboxylic acid]
1400 | 83 | 46 | 66 | – | – | – | COCCn1c(CN2CCN(c3cccc(OCc4ccc(Cl)cc4F)n3)CC2(C)C)nc2ccc(C(=O)O)cc21 [Compound 352B, 2-[(4-{6-[(4-chloro-2-fluorobenzyl)oxy]pyridin-2-yl}-2,2-dimethylpiperazin-1-yl)methyl]-1-(2-methoxyethyl)-1H-benzimidazole-6-carboxylic acid]
3500 | 95 | 110 | 70 | – | – | – | COC(C)(C)Cn1c(CN2CCC(c3cccc(OCc4ccc(Cl)cc4F)n3)CC2)nc2ccc(C(=O)O)cc21 [Compound 297B, 2-[(4-{6-[(4-chloro-2-fluorobenzyl)oxy]pyridin-2-yl}piperidin-1-yl)methyl]-1-(2-methoxy-2-methylpropyl)-1H-benzimidazole-6-carboxylic acid]
– | – | 380 | 68 | – | – | – | O=C(O)c1ccc2nc(CN3CCC(c4cccc(OCc5ccc(Cl)cc5F)n4)CC3)n(Cc3cnc[nH]3)c2c1 [Compound 312B, 2-[(4-{6-[(4-chloro-2-fluorobenzyl)oxy]pyridin-2-yl}piperidin-1-yl)methyl]-1-(1H-imidazol-5-ylmethyl)-1H-benzimidazole-6-carboxylic acid]
– | – | 190 | 86 | – | – | – | O=C(O)c1ccc2nc(CN3CCC(c4cccc(OCc5ccc(Cl)cc5F)n4)CC3)n(CCN3CCCOC3=O)c2c1 [Compound 305B, 2-[(4-{6-[(4-chloro-2-fluorobenzyl)oxy]pyridin-2-yl}piperidin-1-yl)methyl]-1-[2-(2-oxo-1,3-oxazinan-3-yl)ethyl]-1H-benzimidazole-6-carboxylic acid]
